# Data: BindingDB's records for doi:10.1021/acs.jnatprod.5b00540 (Toyama Prefectural University, 2015)
# Numbered stars: 1 amine (or outer) side, 2 acyl side, 3 side chain; on linkers, the order of the positions; unused ones are H or OH. Bridge positions count the residues as written; N and C are the ends. Square brackets hold non-standard residues; d marks the D form. Peptide text beside a SMILES is read from it. * marks the point of attachment. Cinnamoyl(2-(1Z-pentenyl)) = CCC/C=C\c1ccccc1/C=C/C(=O)*; X1 = CN(/C(=C/c1ccc(O)cc1)C(=O)[*:2])[*:1]; aThr = C[C@H](O)[C@H](N)C(=O)O
# Target: T1, Accessory gene regulator protein A (Staphylococcus aureus, UniProt P0A0I7)
# T1 sequence (P0A0I7 whole entry): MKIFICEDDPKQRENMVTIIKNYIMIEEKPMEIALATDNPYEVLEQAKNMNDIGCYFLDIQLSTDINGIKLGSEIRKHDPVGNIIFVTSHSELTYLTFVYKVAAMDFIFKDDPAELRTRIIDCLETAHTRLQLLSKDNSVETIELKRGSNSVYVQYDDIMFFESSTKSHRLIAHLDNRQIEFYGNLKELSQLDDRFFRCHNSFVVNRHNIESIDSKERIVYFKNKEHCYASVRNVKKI
# Experiment: Inhibition of agr-mediated quorum sensing in Staphylococcus aureus after 5 hrs by luminescence analysis
row,Structure (SMILES),IC50 [nM]
1,CC[C@H](C)[C@@H]1NC(=O)[C@@H](C)NC(=O)[C@H](C(C)C)NC(=O)C[C@H](/C=C/c2ccccc2)OC(=O)[C@H](C(C)C)NC1=O [CHEBI:67522],800
2,C[C@H]1NC(=O)[C@@H](Cc2ccccc2)N(C)C(=O)[C@@H]2CCCN2C(=O)c2ccccc2NC(=O)[C@H](Cc2ccccc2)NC1=O,4400
3,CC(C)[C@@H]1NC(=O)C[C@H](/C=C/c2ccccc2)OC(=O)[C@H](C(C)C)NC(=O)[C@H](C(C)C)NC(=O)[C@@H](C)NC1=O,300
4,CCC/C=C\c1ccccc1/C=C/C(=O)N[C@@H]1C(=O)N(C)/C(=C/c2ccc(O)cc2)C(=O)N[C@@H](CC(C)C)C(=O)N[C@H](Cc2ccccc2)C(=O)N[C@@H]([C@H](C)O)C(=O)N[C@@H](CC(N)=O)C(=O)N[C@@H](CO)C(=O)O[C@@H]1C ({Cinnamoyl(2-(1Z-pentenyl))}-T[X1]L[dF][aThr]NS; ester 1-C),2500
